Source: ChEMBL document CHEMBL1133984, “Synthesis, topoisomerase I inhibition and antitumor cytotoxicity of 2,2':6',2"-, 2,2':6',3"- and 2,2':6',4"-terpyridine derivatives” (2001)
In brackets after ≈: the same amount, converted by molar mass.

What was measured:
Assay type in all cases: functional
Conditions in all cases: Homo sapiens
SK-OV-3 = test: Antitumor cytotoxic activity against SK-OV-3 cell line was determined
SK-MEL-2 = test: Antitumor cytotoxic activity against SK-MEL-2 cell line was determined
HT-29 = test: Antitumor cytotoxic activity against HT-29 cell line was determined
RPTEC = test: Antitumor cytotoxic activity against RPTEC cell line was determined
HCT-15 = test: Antitumor cytotoxic activity against HCT-15 cell line was determined
A498 = test: Antitumor cytotoxic activity against A-498 cell line was determined
A549 = test: Antitumor cytotoxic activity against A-549 cell line was determined
PC-3 = test: Antitumor cytotoxic activity against PC-3 cell line was determined

Row | Structure (SMILES) | GI50 (SK-OV-3) [ng/mL] | GI50 (SK-MEL-2) [ng/mL] | GI50 (HT-29) [ng/mL] | GI50 (RPTEC) [ng/mL] | GI50 (HCT-15) [ng/mL] | GI50 (A498) [ng/mL] | GI50 (A549) [ng/mL] | GI50 (PC-3) [ng/mL]
1 | c1ccc(-c2cc(-c3ccccn3)nc(-c3ccccn3)c2)cc1 | 120 (≈ 0.388 µM) | 7500 (≈ 24.2 µM) | 1.4 (≈ 0.00453 µM) | 27 (≈ 0.0873 µM) | 370 (≈ 1.2 µM) | 2.5 (≈ 0.00808 µM) | 560 (≈ 1.81 µM) | 17 (≈ 0.055 µM)
2 | c1ccc(-c2cc(-c3ccco3)cc(-c3ccccn3)n2)nc1 | 130 (≈ 0.434 µM) | 9900 (≈ 33.1 µM) | 2.4 (≈ 0.00802 µM) | 4.1 (≈ 0.0137 µM) | 100 (≈ 0.334 µM) | 0.064 (≈ 0.000214 µM) | 220 (≈ 0.735 µM) | 2.5 (≈ 0.00835 µM)
3 | c1ccc(-c2cc(-c3ccsc3)cc(-c3ccccn3)n2)nc1 | 100 (≈ 0.317 µM) | 890 (≈ 2.82 µM) | 2.7 (≈ 0.00856 µM) | 4.7 (≈ 0.0149 µM) | 290 (≈ 0.919 µM) | 0.097 (≈ 0.000308 µM) | 620 (≈ 1.97 µM) | 1.7 (≈ 0.00539 µM)
4 | c1ccc(-c2cc(-c3cccs3)cc(-c3cccnc3)n2)nc1 | 52000 (≈ 165 µM) | 77700 (≈ 246 µM) | 190 (≈ 0.602 µM) | 56 (≈ 0.178 µM) | 56100 (≈ 178 µM) | 2.9 (≈ 0.00919 µM) | 78900 (≈ 250 µM) | 31 (≈ 0.0983 µM)
5 | c1ccc(-c2cc(-c3cccs3)cc(-c3ccncc3)n2)nc1 | 48300 (≈ 153 µM) | 35200 (≈ 112 µM) | 520 (≈ 1.65 µM) | 650 (≈ 2.06 µM) | 15100 (≈ 47.9 µM) | 840 (≈ 2.66 µM) | 36200 (≈ 115 µM) | 220 (≈ 0.698 µM)
6 | c1ccc(-c2cc(-c3cccnc3)nc(-c3ccccn3)c2)cc1 | 49600 (≈ 160 µM) | 89200 (≈ 288 µM) | 330 (≈ 1.07 µM) | 360 (≈ 1.16 µM) | 40900 (≈ 132 µM) | 74 (≈ 0.239 µM) | 44800 (≈ 145 µM) | 280 (≈ 0.905 µM)
7 | c1ccc(-c2cc(-c3ccsc3)cc(-c3cccnc3)n2)nc1 | > 100000 | > 100000 | 360 (≈ 1.14 µM) | 310 (≈ 0.983 µM) | > 100000 | 640 (≈ 2.03 µM) | > 100000 | 54 (≈ 0.171 µM)
8 | c1ccc(-c2cc(-c3ccoc3)cc(-c3ccccn3)n2)nc1 | 600 (≈ 2 µM) | 330 (≈ 1.1 µM) | 2.6 (≈ 0.00869 µM) | 5.8 (≈ 0.0194 µM) | 60 (≈ 0.2 µM) | 0.032 (≈ 0.000107 µM) | 80 (≈ 0.267 µM) | 4.4 (≈ 0.0147 µM)
9 | COc1cccc2c1C(=O)c1c(O)c3c(c(O)c1C2=O)C[C@@](O)(C(=O)CO)C[C@@H]3O[C@H]1C[C@H](N)[C@H](O)[C@H](C)O1 [DOXORUBICIN] | 73 (≈ 0.134 µM) | 59 (≈ 0.109 µM) | 4.6 (≈ 0.00846 µM) | 72 (≈ 0.132 µM) | 71 (≈ 0.131 µM) | 6.4 (≈ 0.0118 µM) | 92 (≈ 0.169 µM) | 29 (≈ 0.0534 µM)
10 | c1ccc(-c2cccc(-c3ccccn3)n2)nc1 [TERPYRIDINE] | 72 (≈ 0.309 µM) | 100 (≈ 0.429 µM) | 2.6 (≈ 0.0111 µM) | 14 (≈ 0.06 µM) | 71 (≈ 0.304 µM) | 0.097 (≈ 0.000416 µM) | 90 (≈ 0.386 µM) | 0.73 (≈ 0.00313 µM)
